Patent EP4806891A1 (Kangbaida (Sichuan) Biotechnology Co., Ltd., priority 2023, dated 2025)

Target: T1, HEK-Blue-hTLR8 cells (Homo sapiens, UniProt Q9NR97)
T1 construct: expressed in transfected cells; host or cells: HEK-Blue-hTLR8 cells (HEK293-derived reporter line)
T1 sequence (Q9NR97 27-1041): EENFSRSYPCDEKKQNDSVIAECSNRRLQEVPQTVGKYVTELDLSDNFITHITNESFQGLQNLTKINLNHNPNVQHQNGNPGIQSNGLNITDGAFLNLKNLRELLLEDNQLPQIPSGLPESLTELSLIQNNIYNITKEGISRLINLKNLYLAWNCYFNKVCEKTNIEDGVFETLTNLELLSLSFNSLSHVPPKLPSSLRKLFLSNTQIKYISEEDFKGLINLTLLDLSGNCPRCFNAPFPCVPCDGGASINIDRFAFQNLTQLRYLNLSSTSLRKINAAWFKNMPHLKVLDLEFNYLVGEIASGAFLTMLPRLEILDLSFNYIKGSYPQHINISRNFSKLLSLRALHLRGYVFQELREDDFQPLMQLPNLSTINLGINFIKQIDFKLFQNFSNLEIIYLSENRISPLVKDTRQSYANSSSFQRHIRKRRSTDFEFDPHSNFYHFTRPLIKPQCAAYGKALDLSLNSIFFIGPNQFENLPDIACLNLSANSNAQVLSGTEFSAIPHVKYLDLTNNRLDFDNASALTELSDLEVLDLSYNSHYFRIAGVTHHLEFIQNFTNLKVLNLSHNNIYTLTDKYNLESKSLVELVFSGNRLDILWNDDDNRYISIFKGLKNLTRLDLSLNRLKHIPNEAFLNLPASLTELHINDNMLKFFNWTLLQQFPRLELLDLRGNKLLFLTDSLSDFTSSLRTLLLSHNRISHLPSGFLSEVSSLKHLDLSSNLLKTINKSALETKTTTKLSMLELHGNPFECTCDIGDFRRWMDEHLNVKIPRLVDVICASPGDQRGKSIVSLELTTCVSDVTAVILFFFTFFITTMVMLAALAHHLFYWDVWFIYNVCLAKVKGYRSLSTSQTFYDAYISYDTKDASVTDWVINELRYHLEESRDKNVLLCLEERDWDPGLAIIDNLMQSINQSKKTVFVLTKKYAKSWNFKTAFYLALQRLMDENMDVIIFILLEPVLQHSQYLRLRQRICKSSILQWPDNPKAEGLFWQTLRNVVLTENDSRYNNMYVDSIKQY
Experiment: HEK-Blue-hTLR8 cell inhibition assay
Type: cell-based
Conditions: R848 3 µM, 16 h, OD 620 nm, read-out: TLR8 IC50
Procedure: HEK-Blue-hTLR7/8/9 cell inhibition assay
1. HEK-Blue-hTLR7/8 cells (1 × 10^4 cells/well) and HEK-Blue-hTLR9 cells (1.5 × 10^4 cells/well) were seeded in a 384-well cell culture plate, with a volume of 30 µL per well. The plate was incubated at 37°C in a 5% CO2 incubator for 4 h. 2. The compound was prepared with DMSO and diluted in DMEM medium to 10 concentrations (1:3 dilution), with final concentrations of 10000, 3333.3, 1111.1, 370.4, 123.5, 41.2, 13.7, 4.6, 1.5, and 0.5 nM; R848 was prepared with DMSO and diluted in DMEM medium, with final concentrations of 0.8 µM (HEK-Blue-hTLR7) and 3 µM (HEK-Blue-hTLR8); ODN2006 was prepared with endotoxin-free water and diluted in DMEM medium, with a final concentration of 1 µM. 3. Cells treated with DMSO were used as the blank control group, while cells treated solely with Resiquimod (R848) were used as the positive control group for HEK-Blue-hTLR7/8, and cells treated solely with ODN2006 were used as the positive control group for HEK-Blue-hTLR9. Cells treated with the test compound together with R848 or ODN2006 were used as the test group. Two parallel wells were set for each group and were placed at 37°C in a 5% CO2 incubator for incubation. 4. After being incubated for 4 h, the 384-well plate of HEK-Blue-hTLR7/8 was taken out from the incubator, and R848 alone or both R848 and the diluted compound were separately added into each well. The plate was placed at 37°C in a 5% CO2 incubator for incubation for 16 h; the 384-well plate of HEK-Blue-hTLR9 was taken out from the incubator, and ODN2006 alone or both ODN2006 and the diluted compound were added separately to each well. The plate was incubated at 37°C in a 5% CO2 incubator for 16 h. 5. After being incubated for 16 h, the 384-well plate was removed from the incubator and centrifuged at 1000 rpm for 1 minute. The optical density value of each well at 620 nm was measured using a multifunctional microplate reader. 6. The cell inhibition rate was calculated as (1-(OD620 test group-OD620 blank group)/(OD620 positive group-OD620 blank group))×100%, and the half maximal inhibitory concentration (IC50) was calculated through curve fitting. Table 1: Activity of the compounds of the present disclosure in HEK-Blue-hTLR7/8/9 cellular assays

SMILES	IC50 [nM]
CN1CCC(C)(c2nnc([C@]34CN(c5ccc(C#N)c6ncccc56)C[C@@]3(C(F)(F)F)C4)o2)CC1 [Compound 8, 5-((1S,5R)-1-(5-(1,4-dimethylpiperidin-4-yl)-1,3,4-oxadiazol-2-yl)-5-(trifluoromethyl)-3-azabicyclo[3.1.0]hexan-3-yl)quinoline-8-carbonitrile]	< 100
N#Cc1ccc(N2C[C@]3(c4nnc(CCN5CCOCC5)o4)C[C@]3(C(F)(F)F)C2)c2cccnc12 [Compound 43, 5-((1S,5R)-1-(5-(morpholinoethyl)-1,3,4-oxadiazol-2-yl)-5-(trifluoromethyl)-3-azabicyclo[3.1.0]hexan-3-yl)quinoline-8-carbonitrile]	< 100
N#Cc1ccc(N2C[C@]3(c4nnc(C5(F)CCNC5)o4)C[C@]3(C(F)(F)F)C2)c2cccnc12 (stereo partly drawn) [Compound 46, 5-((1S,5R)-1-(5-(3-fluoropyrrolidin-3-yl)-1,3,4-oxadiazol-2-yl)-5-(trifluoromethyl)-3-azabicyclo[3.1.0]hexan-3-yl)quinoline-8-carbonitrile]	< 100
CN1CC(Cc2nnc([C@]34CN(c5ccc(C#N)n6ncc(F)c56)C[C@@]3(C(F)(F)F)C4)o2)C1 [Compound 30, 3-fluoro-4-((1S,5R)-1-(5-((1-methylazetidin-3-yl)methyl)-1,3,4-oxadiazol-2-yl)-5-(trifluoromethyl)-3-azabicyclo[3.1.0]hexan-3-yl)pyrazolo[1,5-a]pyridine-7-carbonitrile]	< 100
N#Cc1ccc(N2C[C@]3(c4nnc(CC5CNC5)o4)C[C@]3(C(F)(F)F)C2)c2cccnc12 [Compound 35, 5-((1S,5R)-1-(5-(azetidin-3-ylmethyl)-1,3,4-oxadiazol-2-yl)-5-(trifluoromethyl)-3-azabicyclo[3.1.0]hexan-3-yl)quinoline-8-carbonitrile]	< 1000
CN1CC(c2nnc([C@]34CN(c5ccc(C(F)(F)F)c6ncccc56)C[C@@]3(C(F)(F)F)C4)o2)C1 [Compound 4, 2-(1-methylazetidin-3-yl)-5-((1S,5R)-5-(trifluoromethyl)-3-(8-(trifluoromethyl)quinolin-5-yl)-3-azabicyclo[3.1.0]hexan-1-yl)-1,3,4-oxadiazole]	< 100
Cc1cc(N2CC3(c4nnc(C5CCN(C)CC5)o4)C[C@]3(C(F)(F)F)C2)c2cnn(C)c2n1 (stereo partly drawn) [Compound 2, 2-((5R)-3-(1,6-dimethyl-1H-pyrazolo[3,4-b]pyridin-4-yl)-5-(trifluoromethyl)-3-azabicyclo[3.1.0]hexan-1-yl)-5-(1-methylpiperidin-4-yl)-1,3,4-oxadiazole]	> 1000
CN1CC(F)(c2nnc([C@]34CN(c5ccc(C#N)c6ncccc56)C[C@@]3(C(F)(F)F)C4)o2)C1 [Compound 49, 5-((1S,5R)-1-(5-(3-fluoro-1-methylazetidin-3-yl)-1,3,4-oxadiazol-2-yl)-5-(trifluoromethyl)-3-azabicyclo[3.1.0]hexan-3-yl)quinoline-8-carbonitrile]	< 100
N#Cc1ccc(N2C[C@]3(c4nnc(C5CCOCC5)o4)C[C@]3(C(F)(F)F)C2)c2cccnc12 [Compound 12, 5-((1S,5R)-1-(5-(tetrahydro-2H-pyran-4-yl)-1,3,4-oxadiazol-2-yl)-5-(trifluoromethyl)-3-azabicyclo[3.1.0]hexan-3-yl)quinoline-8-carbonitrile]	< 100
CN1CCN(c2nnc([C@]34CN(c5ccc(C#N)c6ncccc56)C[C@@]3(C(F)(F)F)C4)o2)CC1 [Compound 1, 5-((1S,5R)-1-(5-(4-methylpiperazin-1-yl)-1,3,4-oxadiazol-2-yl)-5-(trifluoromethyl)-3-azabicyclo[3.1.0]hexan-3-yl)quinoline-8-carbonitrile]	< 100
CN1CCC(Cc2nnc([C@]34CN(c5ccc(C#N)c6ncccc56)C[C@@]3(C(F)(F)F)C4)n2C)CC1 [Compound 38, 5-((1S,5R)-1-(4-methyl-5-((1-methylpiperidin-4-yl)methyl)-4H-1,2,4-triazol-3-yl)-5-(trifluoromethyl)-3-azabicyclo[3.1.0]hexan-3-yl)quinoline-8-carbonitrile]	< 1000
CN1CCC(c2nnc([C@]34CN(c5ccc(C#N)c6ncccc56)C[C@@]3(C(F)(F)F)C4)o2)CC1=O (stereo partly shown) [Compound 34]	< 1000
N#Cc1ccc(N2C[C@]3(c4nnc(N)o4)C[C@]3(C(F)(F)F)C2)c2cccnc12 [Compound 7, 5-((1S,5R)-1-(5-amino-1,3,4-oxadiazol-2-yl)-5-(trifluoromethyl)-3-azabicyclo[3.1.0]hexan-3-yl)quinoline-8-carbonitrile]	< 100

Next, values leading:

IC50 [nM]	SMILES
< 100	CN1CCC(F)(c2nnc([C@]34CN(c5ccc(C#N)n6nccc56)C[C@@]3(C(F)(F)F)C4)o2)CC1 [Compound 90, 4-((1S,5R)-1-(5-(4-fluoro-1-methylpiperidin-4-yl)-1,3,4-oxadiazol-2-yl)-5-(trifluoromethyl)-3-azabicyclo[3.1.0]hexan-3-yl)pyrazolo[1,5-a]pyridine-7-carbonitrile]
< 100	FC(F)(F)Oc1ccc(N2C[C@]3(c4nnc(C5(F)CCNCC5)o4)C[C@]3(C(F)(F)F)C2)c2cccnc12 [Compound 96, 2-(4-fluoropiperidin-4-yl)-5-((1S,5R)-3-(8-(trifluoromethoxy)quinolin-5-yl)-5-(trifluoromethyl)-3-azabicyclo[3.1.0]hexan-1-yl)-1,3,4-oxadiazole]
< 100	CN1CCC(n2cc([C@]34CN(c5ccc(C#N)c6ncccc56)C[C@@]3(C(F)(F)F)C4)nn2)CC1 [Compound 71, 5-((1S,5R)-1-(1-(1-methylpiperidin-4-yl)-1H-1,2,3-triazol-4-yl)-5-(trifluoromethyl)-3-azabicyclo[3.1.0]hexan-3-yl)quinoline-8-carbonitrile]
< 100	N#Cc1ccc(N2C[C@]3(c4nnc(C56CCC(N)(CC5)CC6)o4)C[C@]3(C(F)(F)F)C2)c2cccnc12 [Compound 52, 5-((1S,5R)-1-(5-(4-aminobicyclo[2.2.2]octan-1-yl)-1,3,4-oxadiazol-2-yl)-5-(trifluoromethyl)-3-azabicyclo[3.1.0]hexan-3-yl)quinoline-8-carbonitrile]
< 100	N#Cc1ccc(N2C[C@]3(c4nnc(C56CCC(NC(=O)[C@@H]7COCCN7)(CC5)CC6)o4)C[C@]3(C(F)(F)F)C2)c2cccnc12 [Compound 54, (S)-N-(4-(5-((1S,5R)-3-(8-cyanoquinolin-5-yl)-5-(trifluoromethyl)-3-azabicyclo[3.1.0]hexan-1-yl)-1,3,4-oxadiazol-2-yl)bicyclo[2.2.2]octan-1-yl)morpholine-3-carboxamide]
< 100	N#Cc1ccc(N2C[C@]3(c4nnc(C5CCNCC5)o4)C[C@]3(C(F)(F)F)C2)c2c(F)cnn12 [Compound 80, 3-fluoro-4-((1S,5R)-1-(5-(piperidin-4-yl)-1,3,4-oxadiazol-2-yl)-5-(trifluoromethyl)-3-azabicyclo[3.1.0]hexan-3-yl)pyrazolo[1,5-a]pyridine-7-carbonitrile]
